Measurements from US20160324885A1, “COMPOSITION CONTAINING MODIFIED DERIVATIVES OF A CYTIDINE ANTIMETABOLITE FOR THE TREATMENT OF SUSCEPTIBLE DISEASE” (ASTERIAPHARMA GMBH, priority 2013, published 2016).

How the values were obtained:
HeLa cells [1] = experiment: WST-1 cell proliferation assay, HeLa cells; type: cell-based, human; design: dose or concentration left out as unconfirmed; conditions: 5 days after start of treatment, WST-1, relative to untreated cells
Procedure: FIG. 1. Inhibition of proliferation of human cancer cells treated with either dFdC or homo-oligomers and hetero-oligomers containing dFdC. HeLa cells growing on 96-well plates (5000 cells/well) were treated with: 1) TpF; 2) FpF; 3) TpFpF; 4) FpFpF; 5) dFdC. The concentration of drug in the culture medium […]. Cell proliferation was measured 5 days after treatment was started using the WST-1 assay. The mean value obtained with untreated cells was set at 1.
Methods: Cervical cancer cell lines (HeLa, SiHa, CaSki and C-33) were cultured at 37° C./5% CO2 in medium containing DMEM with Glutamax™, 1 mM sodium pyruvate, penicillin/streptomycin (PS) and 10% fetal bovine serum (FBS) (Invitrogen/LifeTechnologies). […] The cells were incubated with WST-1 for 1 hour at 37° C./5% CO2, then the amount of formazan dye produced was quantified using a scanning spectrophotometer (ELISA plate reader). The absorbance was measured with a test wavelength at 450 nm and a reference wavelength at 630 nm. Then, the 630 nm background absorbance was subtracted from the 450 nm measurement. […]
2) The FpFpF trinucleotide was tested in comparison with dFdC for its ability to inhibit cell growth of tumor cells of different origin: pancreatic cancer (MIA PaCa-2, ASPC) cervical (HeLa, CaSki, C33A) and hepatic (Huh-7) cancers. […] At this time cell proliferation was quantified using the WST-1 assay as described above. […]

[2] = in vivo; cited from earlier work
HeLa cells [3] = experiment: HeLa xenograft tumor growth delay in immunodeficient mice; type: in vivo; conditions: 10 mg/kg intraperitoneally every fourth day, four doses
Procedure: Objective: To compare the anti-tumor activities of FpFpF trinucleotide and dFdC in vivo in a xenograft model. HeLa cells and immunodeficient mice were used in this assay as described below.
Methods. Immunodeficient CAnN.Cg-Fox1^nu/Cr1 (BALB/c) mice (The Jackson Laboratories) are well suited for the xenotransplantation of human tumors. HeLa cells (5×10^6) were mixed 1:1 with matrigel in a final volume of 0.1 ml and then injected subcutaneously in the right flank of each mouse. Treatments were initiated at the time when the tumor volume reached approximately 200 mm^3. The drugs (FpFpF trinucleotide or dFdC) were administered intraperitoneally at 10 mg/kg every fourth day for a total of four doses. Tumor volumes were calculated with the ellipsoid volume formula (L×W×H×π/6) (Tomayko and Reynolds, 1989). Tumor volume values were transformed to a log scale. A two-way analysis of variance by time and treatment was used. The data are finally expressed as means and standard errors for each treatment group against time. A Weibull distribution was assumed to calculate mean times and standard errors for each treatment group. Tumor growth delay was defined as the difference in mean time between each treated group and the control group.

HeLa cells [4] = experiment: Proliferation of HeLa cells treated with drug pre-incubated with human serum; type: cell-based; conditions: serum pre-incubation 2 hours at 37° C., then 72 hours on cells
Procedure: (§1) Methods: The cells were seeded in 96-well plates one day before treatment at a density of 5000 cells/well in 100 μl/well of medium DMEM/Glutamax™/1 mM sodium pyruvate/PS/10%/FBS and cultured at 37° C./5% CO2. Separate serum dilutions of dFdC and FpFpF trinucleotide were prepared from 1 mM stock solutions to a final concentration of 20 μmol/L. The sera aliquots containing either drug were incubated at 37° C./5% CO2 for the indicated times before they were added to the cells to the indicated final concentrations. The cells were incubated for further 72 hours after which the cell proliferation was quantified using the WST-1 assay. Two controls were run in parallel: untreated cells and cells treated with dFdC or FpFpF trinucleotides that were not incubated with serum.

MIA PaCa-2 cells = experiment: Proliferation of MIA PaCa-2 cells treated with drug pre-incubated with human serum; type: cell-based; conditions: MIA PaCa-2, serum pre-incubation 2 hours at 37° C., then 72 hours on cells
Procedure: as §1

[5] = mice, normal tissues and subcutaneous sarcoma tissue; cited from earlier work
[6] = following intravenous administration; cited from earlier work
Panc-1 cells = experiment: Inhibition of proliferation of Panc-1 cells; type: cell-based; conditions: Homo sapiens, read-out: ID50 (the source's name)
Procedure: Methods: The FpFpF trinucleotide was coupled to lipid as described in the Example 3 for the Palmitoyl-trinucleotide (5′-FpFpF-3′-Pal). Panc-1 cells were plated one day before treatment at a density of 5000 cells/well in a 96-well plate with 100 μl/well of medium RPMI/Glutamax™/1 mM sodium pyruvate/PS/10% FBS and cultured at 37° C./5% CO2. Treatments (6 wells per condition) with wither dFdC, FpFpF and FpFpF-Pal were carried out at the indicated concentrations.

IC50 (Panc-1 cells) [µM]	Compound	inhibition of cell proliferation (HeLa cells [1]) [%]	excreted unprocessed in the urine [2]	Tumor Growth Delay at 500 mm^3, Mean ± S.E.M. (HeLa cells [3]; tumor size 500 mm^3) [days]	Tumor Growth Delay at 700 mm^3, Mean ± S.E.M. (HeLa cells [3]; tumor size 700 mm^3) [days]	Tumor Growth Delay at 900 mm^3, Mean ± S.E.M. (HeLa cells [3]; tumor size 900 mm^3) [days]	inhibition of proliferation after pre-incubation of drug with human serum (HeLa cells [4]) [%]	inhibition of proliferation after pre-incubation of drug with human serum (MIA PaCa-2 cells) [%]	time radiolabeled dFdC remains in tissues [5]	half-life in the human plasma [6] [min]
	thymidinyl 3′-5′ phosphate 2′-deoxy-2′,2′-difluorocytidine [TpF]	19								
	2′-deoxy-2′,2′-difluorocytidinyl 3′-5′ phosphate 2′-deoxy-2′,2′-difluorocytidine [FpF]	~56								
12.2	Nc1ccn([C@@H]2O[C@H](CO)[C@@H](O)C2(F)F)c(=O)n1 [dFdC, 2′.2′-difluoro 2′-deoxycytidine]		less than 10%	2.8 ± 0.3	4.9 ± 0.6	7.7 ± 0.5	5	10	up to 3 hours	8 to 17
